From ChEMBL document CHEMBL1153880, “Synthesis and adrenolytic activity of 1-(1H-indol-4-yloxy)-3-{[2-(2-methoxyphenoxy)ethyl]amino}propan-2-ol and its enantiomers. Part 1” (Eur J Med Chem, 2009) come the findings set out here.

Data set [1] deals with Rattus norvegicus. Nature of the data set: Antiarrhythmic activity against adrenaline-induced arrhythmia in iv dosed anaesthetized Wistar rat assessed as inhibition of premature ventricular beats pretreated 60 mins prior to adrenaline challenge. In kind it is functional. The note with it: Heart.
A short description of data set [2]: Acute toxicity in iv dosed anaesthetized Wistar rat. Format: organism-based. As to conditions: in vivo.
Data set [3] can be described thus: Therapeutic index, ratio of LD50 for Wistar rat to antiarrhythmic ED50 for Wistar rat. Format: organism-based, Heart. As to conditions: in vivo, read-out: TI.
Data set [4] has as its system Rattus norvegicus. Nature of the data set: Effect on electrocardiogram in anaesthetized Wistar rat assessed as change in P-Q interval at 1 mg/kg, iv after 1 min by electrocardiography. In kind it is functional.
Data set [5] relates to Rattus norvegicus. Description: Effect on heart rate in anaesthetized Wistar rat assessed as number of beats per minute at 1 mg/kg, iv after 1 min by electrocardiography. In kind it is functional.
Data set [6] relates to Rattus norvegicus. Nature of the data set: Effect on heart rate in anaesthetized Wistar rat assessed as number of beats per minute at 1 mg/kg, iv after 5 mins by electrocardiography. In kind it is functional.

Turning to `CC(C)NCC(O)COc1cccc2[nH]ccc12` (stereo not drawn) [PINDOLOL], in the data set on Rattus norvegicus [1], the ED50 turned out to be 1.05 mg/kg. Besides, the LD50 in data set [2] was 39 mg/kg. For the same compound, in data set [3], the selectivity ratio is 37.

Consider `COc1ccccc1OCCNCC(O)COc1cccc2[nH]c3ccccc3c12` (stereo not drawn) [CARVEDILOL], for which the Activity in the data set with Rattus norvegicus [4] is 50 ms; in the data set with Rattus norvegicus [5], 345.2 min⁻¹; in the data set on Rattus norvegicus [6], 340.3 min⁻¹. In addition, in the data set with Rattus norvegicus [1], the ED50 was found to be 0.25 mg/kg. In addition, the LD50 in data set [2] was found to be 25 mg/kg.

By ED50 is commonly meant the midpoint of the dose-response relation. As usually defined, the LD50 is the dose at which mortality reaches 50%. Lower therefore signals greater toxicity.
